Measurements from patent US12497460B2, “Anti-MSR1 antibodies and methods of use thereof” (REGENERON PHARMACEUTICALS, INC., priority 2018, dated 2025).
In brackets after ≈: the same amount, converted by molar mass.

Experiment: Solubility in water of linker-payloads

CCCC1O[C@@H]2C[C@H]3[C@@H]4C[C@H](F)C5=CC(=O)C=C[C@]5(C)[C@@]4(F)[C@@H](O)C[C@]3(C)[C@]2(C(=O)CNC(=O)OCc2ccc(NC(=O)[C@H](CCCNC(N)=O)NC(=O)[C@@H](NC(=O)CCOCCOCCOCCOCCNC(=O)CCC(=O)N3Cc4ccccc4C#Cc4ccccc43)C(C)C)cc2)O1 (stereo partly shown) [LP13] showed a solubility of 20 µg/mL (≈ 14.2 µM).
